The target of one series is T1, TRPV1 (VR1) (h) (Homo sapiens, UniProt Q8NER1).
T1 construct: host or cells: CHO cells
As to the kind of experiment: TRPV1 (VR1) (h) (antagonist effect). Type of series: cell-based. The conditions noted are these: 100 µM, human recombinant CHO cells; read-out: % Inhibition of control agonist response. On the procedure: Further in vitro functional studies confirmed TRPV1 antagonist activity for (R)-31–(R)-33.
Using previously described testing methodologies, binding/functional tests were conducted on a commercial basis at Eurofins Laboratories (Poitiers, France) and Eurofins Panlabs Discovery Services Taiwan, Ltd. (New Taipei City, Taiwan); see Table S9 for more information.
Table S9. Radioligand binding and functional assays. […]
TRPV1 (VR1) (h) (antagonist effect) […]
Assays were performed commercially in Eurofins Laboratories (Poitiers, France) or Eurofins Panlabs Discovery Services
Taiwan, Ltd. (New Taipei City, Taiwan).

The test system of series [1] is maximal electroshock (MES) seizures, mice. As to the kind of experiment: maximal electroshock (MES) seizure test. The conditions noted are these: Mus musculus, ip; 100 mg/kg i.p., 0.5 h, mice; read-out: MES: number of mice protected/number of mice tested (converted). It is filed as in vivo.
From the text: (§1) Both the aforementioned parameters (ED50 and TD50) enabled the calculation of protective indexes (PIs), which reflect the comparative the benefit–risk ratio of these experimental therapeutic agents.
(§2) Four mice per group were randomly assigned to each experimental group in the initial screening experiments (each mouse was used just once). Four groups, each with eight animals, received injections of different doses of the investigated substances in order to determine the ED50 or TD50 values. The PIs for the compounds investigated and reference ASMs were calculated by dividing the TD50 value, as determined in the chimney test by the respective ED50 value, as determined in the MES, scPTZ, or 6 Hz (32 mA or 44 mA) tests (PI = TD50/ED50). The PIs are a measure of the potential therapeutic window of the tested agent.
(§3) All substances were suspended in Tween 80 (1% aqueous solution) and administered i.p. as a single injection at a volume of 10 mL/kg. On each day of experimentation, fresh solutions were prepared.
Series [2] has as its system 6 Hz (32 mA) seizures, mice. In words: 6 Hz (32 mA) psychomotor seizure test.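 Further: compounds given as one i.p. dose suspended in 1% aqueous Tween 80, with the 6 Hz (32 mA) model considered to reflect focal epilepsy in humans.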 It is filed as in vivo. The conditions noted are these: Mus musculus, ip, 100 mg/kg i.p., 0.5 h.
From the text: as §1, §2, §3
[3] abbreviates: mice, read-out: 6 Hz (32 mA): number of mice protected/number of mice tested (converted).
The mark [4] stands for this setting: four mice, read-out: protection in the 6 Hz (32 mA) test.

A word on the inhibition: it is the change of the read-out against control, counted positive when it falls. One may read the melting point as the temperature, or range, at which the solid turns liquid.

Like-named read-outs stand apart in the source and are kept apart here.

T1 sequence (Q8NER1 whole entry): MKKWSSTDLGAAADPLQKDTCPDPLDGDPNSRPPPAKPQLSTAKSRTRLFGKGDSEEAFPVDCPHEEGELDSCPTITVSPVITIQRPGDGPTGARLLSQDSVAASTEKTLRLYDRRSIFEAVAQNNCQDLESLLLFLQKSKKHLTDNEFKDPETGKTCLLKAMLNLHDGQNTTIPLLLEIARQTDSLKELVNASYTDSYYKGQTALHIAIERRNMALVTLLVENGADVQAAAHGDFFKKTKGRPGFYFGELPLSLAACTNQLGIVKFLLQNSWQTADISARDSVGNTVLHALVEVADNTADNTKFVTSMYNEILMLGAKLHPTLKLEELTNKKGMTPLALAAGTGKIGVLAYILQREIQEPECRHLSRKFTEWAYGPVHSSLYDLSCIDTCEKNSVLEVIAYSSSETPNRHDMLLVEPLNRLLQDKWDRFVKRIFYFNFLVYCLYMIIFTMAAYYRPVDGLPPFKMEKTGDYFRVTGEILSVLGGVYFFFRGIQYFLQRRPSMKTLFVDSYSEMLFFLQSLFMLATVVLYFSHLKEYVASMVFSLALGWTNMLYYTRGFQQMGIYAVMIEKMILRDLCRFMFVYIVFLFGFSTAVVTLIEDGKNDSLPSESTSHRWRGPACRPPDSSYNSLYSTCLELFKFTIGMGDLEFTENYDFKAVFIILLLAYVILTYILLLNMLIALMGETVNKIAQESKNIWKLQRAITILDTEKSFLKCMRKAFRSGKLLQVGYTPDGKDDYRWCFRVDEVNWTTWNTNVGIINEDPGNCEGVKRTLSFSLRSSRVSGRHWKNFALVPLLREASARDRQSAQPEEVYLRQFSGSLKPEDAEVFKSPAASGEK

Compound `O=C(NC(C(=O)N1CCN(c2cccc(C(F)(F)F)c2)CC1)c1ccccc1)c1ccccc1C(F)(F)F` (centres unmarked) [Compound 7, N-(2-Oxo-1-phenyl-2-(4-(3-(trifluoromethyl)phenyl)piperazin-1-yl)ethyl)-2 (trifluoromethyl)benzamide] registered a melting point of 165.2 to 166.7 °C. Further, the inhibition at 100 µM at TRPV1 (VR1) (h) was -2.6%. Further, the responders at 100 mg/kg in series [1] was 0%. Moreover, the responders at 100 mg/kg in series [2] (setting [3]) is 0%.
As for `CC(=O)NC(C(=O)NC1CCN(c2cccc(C(F)(F)F)c2)C1)c1ccccc1` (centres unmarked) [Compound 22, 2-Acetamido-2-phenyl-N-(1-(3-(trifluoromethyl)phenyl)pyrrolidin-3-yl)acetamide], the melting point lay in the range of 203.7 to 204.4 °C. In addition, the inhibition at 100 µM at TRPV1 (VR1) (h) was -8.4%. Further, the responders at 100 mg/kg in series [1] was 0%. Further, the responders at 100 mg/kg in series [2] (setting [4]) came to 50%. Besides, in series [2] (setting [3]), the responders at 100 mg/kg was 50%.
Compound `CC(=O)NC(C(=O)NC1CCN(c2cccc(SC(F)(F)F)c2)C1)c1ccccc1` (centres unmarked) [Compound 24, 2-Acetamido-2-phenyl-N-(1-(3-((trifluoromethyl)thio)phenyl)pyrrolidin-3-yl)acetamide] had a melting point of 168.8 to 169.7 °C. Moreover, the inhibition at 100 µM on TRPV1 (VR1) (h) turned out to be 1.3%. Further, in series [1], the responders at 100 mg/kg was 0%. Besides, in series [2] (setting [4]), the responders at 100 mg/kg stood at 25%. In series [2] (setting [3]), the responders at 100 mg/kg is 25%.
`O=C(NC(C(=O)N1CCN(c2cccc(C(F)(F)F)c2)CC1)c1ccccc1)c1ccccc1` (centres unmarked) [Compound 3, N-(2-Oxo-1-phenyl-2-(4-(3-(trifluoromethyl)phenyl)piperazin-1-yl)ethyl)benzamide] came in with a melting point of 140.9 to 141.2 °C. Also, the inhibition at 100 µM on TRPV1 (VR1) (h) came to 11.4%. For the same compound, the responders at 100 mg/kg in series [1] is 0%. Besides, the responders at 100 mg/kg in series [2] (setting [4]) was 50%. In series [2] (setting [3]), the responders at 100 mg/kg was 50%.
Turning to `O=C(NC(C(=O)N1CCN(c2cccc(C(F)(F)F)c2)CC1)c1ccccc1)c1cc(C(F)(F)F)ccn1` (centres unmarked) [Compound 11, N-(2-Oxo-1-phenyl-2-(4-(3-(trifluoromethyl)phenyl)piperazin-1-yl)ethyl)-4-(trifluoromethyl)picolinamide], the melting point lay within 101.2 to 102.4 °C. Further, on TRPV1 (VR1) (h), the inhibition at 100 µM was -4.2%. Also, the responders at 100 mg/kg in series [1] was 0%. For the same compound, in series [2] (setting [3]), the responders at 100 mg/kg is 50%.
For `O=C(NC(C(=O)N1CCN(c2cccc(C(F)(F)F)c2)CC1)c1ccccc1)c1ccc(C(F)(F)F)cc1` (centres unmarked) [Compound 9, N-(2-Oxo-1-phenyl-2-(4-(3-(trifluoromethyl)phenyl)piperazin-1-yl)ethyl)-4-(trifluoromethyl) Benzamide] the same measures were 103.4 to 104.2 °C, 6.2%, 0% and 0%.
On to `O=C(NC(C(=O)N1CCN(c2cccc(C(F)(F)F)c2)CC1)c1ccccc1)c1ccc(Cl)cc1` (centres unmarked) [Compound 6, 4-Chloro-N-(2-oxo-1-phenyl-2-(4-(3-(trifluoromethyl)phenyl)piperazin-1-yl)ethyl) Benzamide], for which the melting point was in the range of 165.2 to 166.7 °C. The inhibition at 100 µM on TRPV1 (VR1) (h) turned out to be 6.8%. In addition, in series [1], the responders at 100 mg/kg is 0%. Besides, the responders at 100 mg/kg in series [2] (setting [4]) was 25%. Besides, the responders at 100 mg/kg in series [2] (setting [3]) was 25%.
Regarding `CC(=O)N[C@H](C(=O)N1CCN(c2cccc(C(F)(F)F)c2)CC1)c1ccccc1` [(S)-31, (S)-N-(2-Oxo-1-phenyl-2-(4-(3-(trifluoromethyl)phenyl)piperazin-1-yl)ethyl)acetamide], the melting point was in the range of 109.8 to 110.6 °C. The responders at 100 mg/kg in series [1] is 25%. For the same compound, the responders at 100 mg/kg in series [2] (setting [4]) turned out to be 50%. In addition, the responders at 100 mg/kg in series [2] (setting [3]) was 50%.
`O=C(NC(C(=O)N1CCN(c2cccc(C(F)(F)F)c2)CC1)c1ccccc1)c1ccc(C(F)(F)F)cn1` (centres unmarked) [Compound 12, N-(2-Oxo-1-phenyl-2-(4-(3-(trifluoromethyl)phenyl)piperazin-1-yl)ethyl)-5-(trifluoromethyl)picolinamide]: the melting point fell in the range of 146.5 to 147.2 °C. At TRPV1 (VR1) (h), the inhibition at 100 µM is -1.2%. For the same compound, the responders at 100 mg/kg in series [1] is 0%. Further, the responders at 100 mg/kg in series [2] (setting [3]) was 50%.
For `CC(=O)NC(C(=O)NC1CCN(c2ccccc2)C1)c1ccccc1` (centres unmarked) [Compound 21, 2-Acetamido-2-phenyl-N-(1-phenylpyrrolidin-3-yl)acetamide] the same measures were 189.7 to 190.5 °C, 4.2%, 0% and 0%.
`CC(=O)NC(C(=O)NC1CCN(c2cccc(OC(F)(F)F)c2)C1)c1ccccc1` (centres unmarked) [Compound 23, 2-Acetamido-2-phenyl-N-(1-(3-(trifluoromethoxy)phenyl)pyrrolidin-3-yl)acetamide] gave a melting point of 173.1 to 174.2 °C. In addition, the inhibition at 100 µM on TRPV1 (VR1) (h) was -2.7%. Further, the responders at 100 mg/kg in series [1] is 0%. For the same compound, in series [2] (setting [4]), the responders at 100 mg/kg was found to be 50%. In addition, in series [2] (setting [3]), the responders at 100 mg/kg is 50%.
Take `CC(=O)N[C@H](C(=O)N1CCN(c2cccc(OC(F)(F)F)c2)CC1)c1ccccc1` [(S)-32, (S)-N-(2-Oxo-1-phenyl-2-(4-(3-(trifluoromethoxy)phenyl)piperazin-1-yl)ethyl)acetamide]: the responders at 100 mg/kg in series [1] is 25%; in series [2] (setting [4]), 75%; in series [2] (setting [3]), 75%.
Consider `CC(=O)N[C@H](C(=O)N1CCN(c2cccc(SC(F)(F)F)c2)CC1)c1ccccc1` [(S)-33, (S)-N-(2-Oxo-1-phenyl-2-(4-(3-((trifluoromethyl)thio)phenyl)piperazin-1-yl)ethyl)acetamide], for which the results for the responders at 100 mg/kg in series [1], in series [2] (setting [4]) and in series [2] (setting [3]) were 25%, 75% and 75%, respectively.
The compound `O=C(NC(C(=O)N1CCN(c2cccc(C(F)(F)F)c2)CC1)c1ccccc1)c1ccccc1Cl` (centres unmarked) [Compound 4, 2-Chloro-N-(2-oxo-1-phenyl-2-(4-(3-(trifluoromethyl)phenyl)piperazin-1-yl)ethyl) Benzamide] came in with a melting point of 134.8 to 135.9 °C. At TRPV1 (VR1) (h), the inhibition at 100 µM was 14.4%. For the same compound, the responders at 100 mg/kg in series [1] is 0%. Further, the responders at 100 mg/kg in series [2] (setting [3]) is 0%.
`O=C(NC(C(=O)N1CCN(c2cccc(C(F)(F)F)c2)CC1)c1ccccc1)c1cccc(C(F)(F)F)c1` (centres unmarked) [Compound 8, N-(2-Oxo-1-phenyl-2-(4-(3-(trifluoromethyl)phenyl)piperazin-1-yl)ethyl)-3-(trifluoromethyl)benzamide] came in with a melting point of 143.2 to 144.1 °C. In addition, the inhibition at 100 µM at TRPV1 (VR1) (h) is -6.1%. For the same compound, in series [1], the responders at 100 mg/kg was 0%. Besides, in series [2] (setting [3]), the responders at 100 mg/kg was 0%.
With `O=C(NC(C(=O)N1CCN(c2cccc(C(F)(F)F)c2)CC1)c1ccccc1)c1ncccc1C(F)(F)F` (centres unmarked) [Compound 10, N-(2-Oxo-1-phenyl-2-(4-(3-(trifluoromethyl)phenyl)piperazin-1-yl)ethyl)-3-(trifluoromethyl)picolinamide], on TRPV1 (VR1) (h), the inhibition at 100 µM was -3.5%. Further, the figures for the responders at 100 mg/kg in series [1] and in series [2] (setting [3]) were 0% and 50%, respectively.
`O=C(NC(C(=O)N1CCN(c2cccc(C(F)(F)F)c2)CC1)c1ccccc1)c1cccc(Cl)c1` (centres unmarked) [Compound 5, 3-Chloro-N-(2-oxo-1-phenyl-2-(4-(3-(trifluoromethyl)phenyl)piperazin-1-yl)ethyl) Benzamide] yielded a melting point of 151.7 to 152.4 °C. Also, the inhibition at 100 µM at TRPV1 (VR1) (h) came to 3.8%. Further, the responders at 100 mg/kg in series [1] is 0%. The responders at 100 mg/kg in series [2] (setting [4]) was 50%. For the same compound, the responders at 100 mg/kg in series [2] (setting [3]) is 50%.

The values are drawn from article PMC11378297, “Discovery and Profiling of New Multimodal Phenylglycinamide Derivatives as Potent Antiseizure and Antinociceptive Drug Candidates” (ACS Chemical Neuroscience, 2024).
